Data on 21 molecules can be found in ChEMBL document CHEMBL1143441, “New classes of Gram-positive selective antibacterials: inhibitors of MRSA and surrogates of the causative agents of anthrax and tuberculosis” (2008).

In brackets after ≈: the same amount, converted by molar mass.

Format in all cases: functional
Test [1] has as its system Staphylococcus aureus. As to the kind of experiment: Antimicrobial activity against Staphylococcus aureus ATCC 29213 by NCCLS M7-A6 method.
Test [2] relates to Staphylococcus aureus. Briefly: Antimicrobial activity against methicillin-resistant Staphylococcus aureus MC1 by NCCLS M7-A6 method.
Test [3] concerns Bacillus cereus. Briefly: Antimicrobial activity against Bacillus cereus by NCCLS M7-A6 method.
Test [4] has as its system Escherichia coli. Briefly: Antimicrobial activity against Escherichia coli by NCCLS M7-A6 method.
Test [5] concerns Mycolicibacterium smegmatis. As to the kind of experiment: Antimicrobial activity against Mycobacterium smegmatis by NCCLS M7-A6 method.
The test system of test [6] is Corynebacterium xerosis. Briefly: Antimicrobial activity against Corynebacterium xerosis by NCCLS M7-A6 method.
Test [7] relates to Corynebacterium diphtheriae. As to the kind of experiment: Antimicrobial activity against Corynebacterium diphtheriae Tox by NCCLS M7-A6 method.
Test [8] deals with Corynebacterium pseudodiphtheriticum. As to the kind of experiment: Antimicrobial activity against Corynebacterium pseudodiphtheriticum by NCCLS M7-A6 method.
Test [9] relates to Staphylococcus aureus. Briefly: Antimicrobial activity against Staphylococcus aureus ATCC 25923 by NCCLS M7-A6 method.
Test [10] deals with Staphylococcus aureus. Briefly: Antimicrobial activity against methicillin-resistant Staphylococcus aureus MC2 by NCCLS M7-A6 method.
Test [11] relates to Enterococcus faecium. As to the kind of experiment: Antimicrobial activity against vancomycin-resistant Enterococcus faecium 1 by NCCLS M7-A6 method.
Test [12] concerns Enterococcus faecalis. Briefly: Antimicrobial activity against Enterococcus faecalis ATCC 29212 by NCCLS M7-A6 method.
The subject of test [13] is Listeria monocytogenes. Briefly: Antimicrobial activity against Listeria monocytogenes by NCCLS M7-A6 method.
Test [14] has as its system Streptococcus mitis. Briefly: Antimicrobial activity against Streptococcus mitis by NCCLS M7-A6 method.
In test [15] the test system is Streptococcus agalactiae. As to the kind of experiment: Antimicrobial activity against Streptococcus agalactiae by NCCLS M7-A6 method.
The test system of test [16] is Streptococcus pyogenes. As to the kind of experiment: Antimicrobial activity against Streptococcus pyogenes by NCCLS M7-A6 method.
Test [17] relates to Streptococcus pneumoniae. As to the kind of experiment: Antimicrobial activity against Streptococcus pneumoniae ATCC 49619 by NCCLS M7-A6 method.
The subject of test [18] is Priestia megaterium. Briefly: Antimicrobial activity against Bacillus megaterium by NCCLS M7-A6 method.
Test [19] concerns Bacillus subtilis. As to the kind of experiment: Antimicrobial activity against Bacillus subtilis by NCCLS M7-A6 method.
Test [20] concerns Bacillus anthracis. As to the kind of experiment: Antimicrobial activity against Bacillus anthracis Sterne by NCCLS M7-A6 method.
Test [21] relates to Pseudomonas aeruginosa. Briefly: Antimicrobial activity against Pseudomonas aeruginosa by NCCLS M7-A6 method.
In test [22] the test system is Enterococcus faecium. Briefly: Antimicrobial activity against vancomycin-resistant Enterococcus faecium 14 by NCCLS M7-A6 method.

Consider `COc1cc(/C=C/c2cccs2)cc(OC)c1`, for which the MIC in test [1], in test [2], in test [3], in test [4] and in test [5] was more than 512 µg/mL each time.

With `COc1cc(O)cc(/C=C/Oc2ccccc2C)c1`, the MIC (commonly the lowest concentration that inhibits growth of the organism) is 16 µg/mL (≈ 62.4 µM) in [1]; 32 µg/mL (≈ 125 µM) in test [2]; 64 µg/mL (≈ 250 µM) in test [3]; more than 512 µg/mL in test [4]; more than 128 µg/mL in test [5].

Consider `COc1cc(O)cc(/C=C/c2ccsc2)c1`, for which the MIC was 32 µg/mL (≈ 138 µM) in test [1]; 32 µg/mL (≈ 138 µM) in test [2]; 32 µg/mL (≈ 138 µM) in test [3]; more than 512 µg/mL in test [4]; 64 µg/mL (≈ 276 µM) in test [5].

As for `COc1cc(/C=C/Oc2ccccc2)cc(OC)c1`, the MIC in test [1], in test [2], in [3], in [4] and in [5] was more than 512 µg/mL throughout.

Consider `COc1cc(/C=C/Oc2cccc(C)c2)cc(OC)c1`, for which the MIC in test [1], in test [2], in test [3], in test [4] and in test [5] was more than 512 µg/mL in each case.

In the case of `COc1cc(/C=C/Oc2ccc(C)cc2)cc(OC)c1`, the MIC in [1], in [2], in test [3], in test [4] and in test [5] was more than 512 µg/mL in each case.

Regarding `COc1cc(/C=C/Oc2cccc(OC)c2)cc(OC)c1`, the MIC in test [1], in [2], in test [3], in test [4] and in test [5] was more than 512 µg/mL in each case.

Consider `COc1cc(O)cc(O/C=C/c2ccccc2)c1`, for which the MIC is 32 µg/mL (≈ 132 µM) in test [1]; 32 µg/mL (≈ 132 µM) in test [2]; 64 µg/mL (≈ 264 µM) in [3]; more than 512 µg/mL in test [4]; 128 µg/mL (≈ 528 µM) in [5].

As for `COc1cc(OC)cc(O/C=C/c2ccccc2)c1`, the MIC in [1], in [2], in test [3], in test [4] and in test [5] was more than 512 µg/mL in each case.

With `COc1cc(O)cc(/C=C/Oc2ccccc2)c1`, the minimal inhibitory concentration (MIC) in test [1] was 32 µg/mL (≈ 132 µM); in test [2], 64 µg/mL (≈ 264 µM); in test [3], 32 µg/mL (≈ 132 µM); in test [4] it was more than 512 µg/mL; in [5] it was 128 µg/mL (≈ 528 µM).

With `COc1cc(O)cc(/C=C/Oc2ccc(C)cc2)c1`, the MIC in test [1] is 16 µg/mL (≈ 62.4 µM); in test [2], 32 µg/mL (≈ 125 µM); in [3], 64 µg/mL (≈ 250 µM); in test [4], more than 512 µg/mL; in test [5], more than 128 µg/mL.

With `COc1ccc(O/C=C/c2cc(O)cc(OC)c2)cc1`, the MIC in test [1] is 16 µg/mL (≈ 58.8 µM); in [2], 64 µg/mL (≈ 235 µM); in test [3], 64 µg/mL (≈ 235 µM); in test [4], more than 512 µg/mL; in test [5] it was 128 µg/mL (≈ 470 µM).

In the case of `COc1cc(/C=C/Oc2ccccc2C)cc(OC)c1`, the MIC in test [1], in test [2], in test [3], in test [4] and in test [5] was more than 512 µg/mL throughout.

Take `COc1cc(O)cc(/C=C/Oc2cccc(C)c2)c1`: the MIC is 16 µg/mL (≈ 62.4 µM) in test [1]; 32 µg/mL (≈ 125 µM) in [2]; 32 µg/mL (≈ 125 µM) in test [3]; more than 512 µg/mL in test [4]; 64 µg/mL (≈ 250 µM) in test [5].

In the case of `COc1cc(O)cc(/C=C/Sc2ccccc2)c1`, the MIC in test [1] was 16 µg/mL (≈ 61.9 µM); in [2], 32 µg/mL (≈ 124 µM); in test [3] it was 16 µg/mL (≈ 61.9 µM); in test [4], more than 512 µg/mL; in test [5], 128 µg/mL (≈ 495 µM).

For the molecule `COc1cc(O)cc(/C=C/Oc2cccc(OC)c2)c1`, the MIC in test [1] was 16 µg/mL (≈ 58.8 µM); in test [2] it was 64 µg/mL (≈ 235 µM); in test [3], 64 µg/mL (≈ 235 µM); in [4] it was more than 512 µg/mL; in [5] it was 128 µg/mL (≈ 470 µM).

With `COc1cc(O)cc(/C=C/c2cccs2)c1`, the MIC is 16 µg/mL (≈ 68.9 µM) in [1]; 32 µg/mL (≈ 138 µM) in test [2]; 32 µg/mL (≈ 138 µM) in [3]; more than 512 µg/mL in test [4]; 128 µg/mL (≈ 551 µM) in test [5].

Consider `COc1cc(/C=C/Sc2ccccc2)cc(OC)c1`, for which the MIC in test [1], in [2], in test [3], in [4] and in test [5] was more than 512 µg/mL throughout.

As to `COc1ccc(O/C=C/c2cc(OC)cc(OC)c2)cc1`, the MIC in test [1], in test [2], in [3], in test [4] and in test [5] was more than 512 µg/mL throughout.

As to `COc1cc(/C=C/c2ccccc2)cc(OC)c1` [3,5-O-DIMETHYLPINOSYLVIN], the MIC in test [1], in test [2], in test [3], in [4] and in [5] was more than 512 µg/mL throughout.

Regarding `COc1cc(O)cc(/C=C/c2ccccc2)c1` [PINOSYLVIN METHYL ETHER], the MIC in test [6] turned out to be 16 µg/mL (≈ 70.7 µM); in test [7], 32 µg/mL (≈ 141 µM); in [8], 16 µg/mL (≈ 70.7 µM); in [1], 32 µg/mL (≈ 141 µM); in [9] it was 32 µg/mL (≈ 141 µM); in test [2] it was 32 µg/mL (≈ 141 µM). Also, the MIC came to 32 µg/mL (≈ 141 µM) in [10]; 16 µg/mL (≈ 70.7 µM) in test [11]; 16 µg/mL (≈ 70.7 µM) in test [12]; 32 µg/mL (≈ 141 µM) in test [13]; 64 µg/mL (≈ 283 µM) in [14]; 32 µg/mL (≈ 141 µM) in test [15]. In addition, the MIC in test [16] stood at 16 µg/mL (≈ 70.7 µM); in test [17], 8 µg/mL (≈ 35.4 µM); in test [3], 16 µg/mL (≈ 70.7 µM); in test [18], 64 µg/mL (≈ 283 µM); in test [19], 16 µg/mL (≈ 70.7 µM); in [20] it was 8 µg/mL (≈ 35.4 µM). In addition, the MIC in test [4] was more than 512 µg/mL; in test [21], more than 128 µg/mL; in test [22], 16 µg/mL (≈ 70.7 µM); in [5], 64 µg/mL (≈ 283 µM).
